{
  "source": "patent US11865176B2",
  "about": "“Compositions and methods of modulating anti-tumor immunity” (Dana-Farber Cancer Institute, Inc., priority 2016, dated 2024)",
  "key": {"[1]": {"tested_on": "tumor-infiltrating CD3+ T cells", "experiment": "Single-cell RNA-seq of tumor-infiltrating CD3+ T cells from KP GEMM lung tumors", "type": "in vivo, mouse", "excerpt": "Library preparation and pre-processing: Single-cell suspensions from KrasG^12D/+Trp53^fl/fl GEMM mice treated with trilaciclib were isolated as described for tumor-infiltrating immune cells, with modifications. After isolation, live cells were stained and sorted for the CD45+CD3+DAPI-population and plated at one cell/well of a skirted twin.tec 96-well plate (Eppendorf) containslxTCL buffer (Qiagen cat #1031576) spiked with ERCC (Ambion, 1:2,000,000 dilution ratio). A total of four 96-well plates were generated, two plates with and two plates without ERCC spike-ins. After sorting, full-length RNA-seq from isolated single cells was performed according to SMART-seq2 protocol with modifications. Briefly, total RNA was purified using RNA-SPRI beads. Poly(A)+ mRNA was converted to cDNA for amplification. The converted cDNA transcript was subject to barcoding specific to each sample using transposon-based fragmentation that used dual-indexing. For single-cell sequencing, each cell was given its own combination of barcodes. Barcoded cDNA fragments were then pooled prior to sequencing. Sequencing was carried out as paired-end (PE) 2×36 bp with an additional 8 cycles for each index on NexSeq 500 desktop sequencer (Illumina). To obtain quantitative mapping information, PE reads were mapped to the mouse genome (mm9), concatenated with ERCC sequences for spiked-in samples, by STAR (56). Estimated transcript counts and transcripts per million (TPM) for the mouse Gencode vM1 annotation, concatenated with ERCC sequence information for spiked-in samples, were obtained using the pseudo-aligner Kallisto (57). Aggregated and library scaled TPM values for genes were obtained according to the methods described (58) and were used in further downstream differential distribution, Gene Ontology and cell cycle analysis. […] Genes were considered not expressed if TPM<1 and were subsequently removed if not detected in at least 10% of remaining cells. The single-cell RNA-seq results have been deposited in NCBI's Gene Expression Omnibus and are accessible through GEO Series accession number GSE89477 (https://www.ncbi.nlm.nih.gov/geo/query/acc.cgi?acc=GSE89477).\nWe used a multi-step approach using the R package SCONE to identify the optimal normalization strategy and account for possible batch effects, observed and hidden technical covariates (59). […] Next, these genes were used in the SCONE framework as negative control genes for unwanted variation for all plates. We continued with highest scored normalization strategy according to SCONE metrics, which included adjusting for batch and biological effects, removal of observed technical variation based on previously identified quality metrics, scaling for library size with DESeq, and imputing drop-out events using a combined clustering and probabilistic scoring algorithm.\nTo assign cells to a cell-cycle stage we applied the cyclone classification tool as previously described (60).\nSubsequently, we combined two approaches. […] Next, these genes were used to perform PCA and the 100 most correlated and anti-correlated genes for the first 5 principal components were retained for reducing dimensionality and separating cells in gene expression space with t-SNE. Distinct groups were identified applying density based clustering (dbscan) on the t-SNE generated coordinates, resulting in three (3) groups of cells.\nGenes that display differential distribution between previously identified groups or between treatments were discovered by performing pairwise comparisons with the scDD (http://biorxiv.org/content/early/2015/12/29/035501) package in R. Enriched biological processes were identified using the online GOrilla tool (http://bmcbioinformatics.biomedcentral.com/articles/10.1186/1471-2105-10-48)."}, "[2]": {"tested_on": "splenic T cells (Tconv, CD8+, Treg)", "experiment": "Cell co-culture and cytokine production ex vivo", "type": "cell-based, mouse", "experimental": "Naïve or KP tumor bearing C57BL/6 mice were sacrificed and total splenocytes were harvested. Spleens were digested with collagenase D (Roche) and Dnase I (Roche) at 37° C. for 30 min, followed by 1×ACS lysis buffer (Biolegend) incubation to lyse red blood cells. The collected total splenocytes were stained with the fluorochome-conjugated cell surface markers CD3, CD4, CD8 and CD25 to isolate different T cell subpopulations, including conventional T cell Tconv (CD3+CD4+[…]), Treg (CD3+CD4+CD25+), and CD8+(CD3+CD8+) using BD FACSAria II SORP cell sorter (BD Bioscience). DAPI (4′,6-diamidino-2-phenylindole) staining was used to exclude dead cells. Sorted cells were cultured in 96-well plates pre-coated with CD3 antibody (eBioscience) and treated with trilaciclib in the presence of CD28 (eBioscience). Cells were collected 3 days after culturing and cytokine production of IFNγ and IL-2 was determined by intracellular staining and analyzed on BD LSRFortessa (BD Bioscience)."}, "[3]": {"tested_on": "patient-derived organotypic tumor spheroids (PDOTS)", "experiment": "Cytokine profiling of patient-derived organotypic tumor spheroids (PDOTS) in 3D microfluidic culture", "type": "cell-based, human", "conditions": "100 nM; day 1 and day 3", "experimental": "Experiments were performed as described (28). Briefly, fresh tumor specimens from human patients were received in media (DMEM) on ice and minced in 10 cm dishes (on ice) in a sterile field. S2 fractions (40-100 μm) were used for ex vivo culture as previously described (28). An aliquot of the S2 fraction was pelleted and re-suspended in type I rat-tail collagen (Corning, Corning, NY) and the spheroid-collagen mixture was then injected into the center gel region of the 3D microfluidic culture device. After 30 minutes at 37° C., collagen hydrogels containing PDOTS/MDOTS were hydrated with media with indicated treatments. MDOTS were treated with IgG isotype control (10 μg/mL, clone 2A3) or rat-α-mouse anti-PD-1 (10 μg/ml, clone RMP1-14, BioXCell). […]\nMouse lung broncho alveolar lavage (BAL) was performed by intracheal injection of 2 ml of sterile PBS followed by collection by aspiration. Cytokines were measured using 19-plex mouse magnetic Luminex kit (R&D systems), Mouse Cytokine 23-plex Assay (Bio-Rad) or Human Cytokine 40-plex Assay (Bio-Rad) and measured on Bio-Plex 200 system (Bio-Rad). […] Fold changes relative to the control were calculated and plotted as log 2FC. Lower and upper limits of quantitation (LLOQ/ULOQ) were derived from standard curves for cytokines above or below detection. […]"}},
  "data": [
    {"smiles": "CN1CCN(c2ccc(Nc3ncc4cc5n(c4n3)C3(CCCCC3)CNC5=O)nc2)CC1", "note": "[trilaciclib]", "values": [
      {"measurement": "log2(G1T28 vs vehicle)", "setting": "[1]; gene Aifl", "value": "Aifl^65 1.045"},
      {"measurement": "log2(G1T28 vs vehicle)", "setting": "[1]; gene Ccl2", "value": "Ccl2^63, 690.6"},
      {"measurement": "log2(G1T28 vs vehicle)", "setting": "[1]; gene Ccl5", "value": "Ccl5^63 0.7416"},
      {"measurement": "log2(G1T28 vs vehicle)", "setting": "[1]; gene Ccna2", "value": "Ccna2^71 −1.194"},
      {"measurement": "log2(G1T28 vs vehicle)", "setting": "[1]; gene Ccnd1", "value": "Ccnd1^67 0.8223"},
      {"measurement": "log2(G1T28 vs vehicle)", "setting": "[1]; gene Ccr2", "value": "Ccr2^61 3.091"},
      {"measurement": "log2(G1T28 vs vehicle)", "setting": "[1]; gene Cd22", "value": "Cd22^72 −1.232"},
      {"measurement": "log2(G1T28 vs vehicle)", "setting": "[1]; gene Cd86", "value": "Cd86^70 0.621"},
      {"measurement": "log2(G1T28 vs vehicle)", "setting": "[1]; gene Clcf1", "value": "Clcf1^63 1.47"},
      {"measurement": "log2(G1T28 vs vehicle)", "setting": "[1]; gene Csfl", "value": "Csfl^63 0.5966"},
      {"measurement": "log2(G1T28 vs vehicle)", "setting": "[1]; gene Cx3cr1", "value": "Cx3cr1^22 1.233"},
      {"measurement": "log2(G1T28 vs vehicle)", "setting": "[1]; gene Cxcl1", "value": "Cxcl1^68 0.7175"},
      {"measurement": "log2(G1T28 vs vehicle)", "setting": "[1]; gene Ece1", "value": "Ece1^62 2.974"},
      {"measurement": "log2(G1T28 vs vehicle)", "setting": "[1]; gene Il2ra", "value": "Il2ra^66 0.9413"},
      {"measurement": "log2(G1T28 vs vehicle)", "setting": "[1]; gene Il7r", "value": "Il7r^64 1.461"},
      {"measurement": "log2(G1T28 vs vehicle)", "setting": "[1]; gene Tnfsf8", "value": "Tnfsf8^63 1.037"},
      {"measurement": "IL-2 signaling activation", "setting": "[1]; group 3, and group 1 to a lesser extent", "value": "significantly increased IL-2 signaling activation"},
      {"measurement": "proportion of T cells in the G1 phase", "setting": "[1]; groups 1 and 3", "value": "increased the proportion of T cells in the G1 phase"},
      {"measurement": "IL-2 production", "setting": "[2]; Tconv cells treated ex vivo, 3 days, naïve vs tumor-bearing mice", "value": "increased IL-2 production only in cells from tumor-bearing mice"},
      {"measurement": "increase of IFNγ production", "setting": "[2]; splenic CD8+ T cells from tumor-bearing mice co-cultured with Tregs", "value": "~10", "unit": "fold"},
      {"measurement": "levels of Th1 cytokines (CXCL9, CXCL10, IFNγ, IL-16, CXCL16)", "setting": "[3]", "value": "increased levels of Th1 cytokines"}
    ]}
  ]
}
